This note sets out measurements from US20050282745A1, “Non-mammalian GnRH analogs and uses thereof in regulation of fertility and pregnancy” (priority 2001, published 2005).

The test has as its system early human placental explants. As to the kind of experiment: Placental explant perifusion, hCG release. Type of test: cell-based. As to conditions: for pattern of hCG response: continuous perifusion. The text has this:
Placental tissues that are normally discarded were obtained from unidentified patients following first trimester pregnancy termination (early human placental explants). Tissue fragments, dissected of vessels and membranes, were placed in a perfusion system for study of 20 replicate chambers of the same tissue. This allows for simultaneous dose-response studies to be performed. To achieve this specific aim, explants from a given placenta were placed in 20 replicate chambers and perfused with basal medium for three hours at a rate of 6 ml/hr (dead volume of the system at 6 ml/hr is ten minutes). After three hours of equilibration, the analog was added to the basal perfusing medium. Quaduplicate chambers were made for chicken II GnRH analog (SEQ ID NO: 2) at 0, 10^−9, 10^−8, 10^−7, 10^−6 M and Buserelin (SEQ ID NO: 10) at 10^−7 M. The effluent medium of each chamber was collected after a three hour equilibration period. Two basal samples, at half hour intervals were collected, media with test substances was initiated and effluent medium collection continued for four and one half hours at thirty minute intervals. The hCG release was analyzed in each of these experiments. FIGS. 16 and 17 illustrate a typical response. […] Maximal response was observed within minutes after initiation of perfusion at 10^−8 M, with possible down regulation beginning after five hours at 10^−6 M as illustrated in FIG. 18.
In additional experiments, early gestation human placentas were perfused for six hours with medium supplemented with estradiol, progesterone, bovine serum albumin, and antibiotics (basal medium). Twenty replicate chambers were perifused with basal medium for two hours, then triplicate chambers were perifused with the medium containing either Buserelin (SEQ ID NO: 10), or 10^−9, 10^−8, 10^−7, 10^−6 M of a chicken II GnRH analog (SEQ ID NO: 2), leaving five control chambers. The eluted medium was collected at thirty minute intervals, starting one hour prior to the addition of GnRH analogs and throughout five hours of treatment. hCG released into the effluent media, as well as the production of GnRH, were measured using sensitive and specific radioimmunoassays. The release of hCG at each time point was normalized to its zero treatment release and the release throughout the treatment period and its average release was compared for various treatment regimens. These studies were repeated using tissues from three different first trimester placentas. The results of this experiment are illustrated in FIG. 20.

Non-standard residues stand in square brackets, D forms with d. Residues, ends and D or L forms follow the SMILES beside them. pGlu = O=C1CC[C@@H](C(=O)O)N1; azaGly = NNC(=O)O

Take `N=C(N)NCCC[C@@H](NC(=O)[C@H](Cc1c[nH]cn1)NC(=O)[C@H](CO)NC(=O)[C@H](Cc1c[nH]c2ccccc12)NC(=O)[C@H](Cc1c[nH]cn1)NC(=O)[C@@H]1CCC(=O)N1)C(=O)N[C@@H](Cc1c[nH]c2ccccc12)C(=O)N[C@@H](Cc1ccc(O)cc1)C(=O)N1CCC[C@H]1C(=O)NNC(N)=O` [D-Arg(6)-chicken II GnRH-aza-Gly(10)-amide] ([pGlu]HWSH[dR]WYP[azaGly]-NH2): the “concentration giving maximal hCG response” value (10^−9 to 10^−6 M tested) is on record as 10^−8 M. Besides, the “pattern of hCG response” value is “dose related biphasic response” (listed as Chicken II GnRH analog) and “biphasic stimulation of hCG” (listed as chicken II GnRH analog).
